Columns and labels:
[1] = Oral bioavailability in rat; type: ADME, organism-based; settings: in vivo
in vivo [2] = settings: rat, plasma, po
in vivo [3] = settings: rat, plasma, po, 10 mg/kg
in vivo [4] = settings: rat, plasma, po; remark: listed apart in the source
in vivo [5] = settings: rat, plasma, iv

Row | Structure (SMILES) | bioavailability [1] | AUC (in vivo [2]) | Cmax (in vivo [3]) | Tmax (in vivo [4]) | half-life (in vivo [5])
1 | COc1ccc(CN(C)C(=O)NC(C(=O)N[C@@H](Cc2ccccc2)C[C@H](O)[C@H](Cc2ccccc2)NC(=O)OCc2cccnc2)C(C)C)cn1 (stereo not given in full) | 10% | 320 ng·h/mL | 1750 nM | 6 min | 13.2 min
2 | CC(C)c1nc(CN(C)C(=O)NC(C(=O)N[C@@H](Cc2ccccc2)[C@@H](O)C[C@H](Cc2ccccc2)NC(=O)OCc2cccnc2)C(C)C)co1 (stereo not given in full) | 3.3% | 90 ng·h/mL | 290 nM | 6 min | 17.4 min
3 | COc1ccc(CN(C)C(=O)NC(C(=O)N[C@@H](Cc2ccccc2)C[C@H](O)[C@H](Cc2ccccc2)NC(=O)OCc2cccnc2)C(C)C)nc1 (stereo not given in full) | 5.7% | 290 ng·h/mL | 1050 nM | 6 min | 34.2 min
4 | COc1cncc(CN(C)C(=O)NC(C(=O)N[C@@H](Cc2ccccc2)C[C@H](O)[C@H](Cc2ccccc2)NC(=O)OCc2cccnc2)C(C)C)c1 (stereo not given in full) | 0.4% | 50 ng·h/mL | 180 nM | 9 min | 16.8 min
5 | CC(C)C(NC(=O)N(C)Cc1ccccn1)C(=O)N[C@@H](Cc1ccccc1)[C@@H](O)C[C@H](Cc1ccccc1)NC(=O)OCc1ccoc1 (stereo not given in full) | 9.3% | 500 ng·h/mL | 1020 nM | 24 min | 64.2 min
6 | Cc1cnc(COC(=O)NC(C(=O)N[C@@H](Cc2ccccc2)C[C@H](O)[C@H](Cc2ccccc2)NC(=O)OCc2cccnc2)C(C)C)cn1 (stereo not given in full) | 6% | 190 ng·h/mL | 860 nM | 18 min | 12.6 min
7 | COc1ccc(COC(=O)NC(C(=O)N[C@@H](Cc2ccccc2)C[C@H](O)[C@H](Cc2ccccc2)NC(=O)OCc2cccnc2)C(C)C)cn1 (stereo not given in full) | 0.7% | 30 ng·h/mL | 190 nM | 6 min | 19.8 min
8 | Cc1cccc(CN(C)C(=O)NC(C(=O)N[C@@H](Cc2ccccc2)C[C@H](O)[C@H](Cc2ccccc2)NC(=O)OCc2cccnc2)C(C)C)n1 (stereo not given in full) | 32% | 1660 ng·h/mL | 3390 nM | 17.4 min | 40.8 min
9 | CC(C)C(NC(=O)OCc1nccs1)C(=O)N[C@@H](Cc1ccccc1)C[C@H](O)[C@H](Cc1ccccc1)NC(=O)OCc1cccnc1 (stereo not given in full) | 8.5% | 570 ng·h/mL | 2530 nM | 9 min | 39.6 min
10 | CCc1cccc(COC(=O)NC(C(=O)N[C@@H](Cc2ccccc2)[C@@H](O)C[C@H](Cc2ccccc2)NC(=O)OCc2cccnc2)C(C)C)n1 (stereo not given in full) | 16% | 810 ng·h/mL | 1260 nM | 15 min | 44.4 min
11 | CC(C)c1nc(COC(=O)NC(C(=O)N[C@@H](Cc2ccccc2)[C@@H](O)C[C@H](Cc2ccccc2)NC(=O)OCc2cccnc2)C(C)C)cs1 (stereo not given in full) | 3% | 220 ng·h/mL | 470 nM | 15 min | 40.8 min
12 | CC(C)C(NC(=O)OCc1ccccn1)C(=O)N[C@@H](Cc1ccccc1)C[C@H](O)[C@H](Cc1ccccc1)NC(=O)OCc1cncs1 (stereo not given in full) | 47% | 4240 ng·h/mL | 2040 nM | 22.2 min | 73.8 min
13 | Cc1ccc(CN(C)C(=O)NC(C(=O)N[C@@H](Cc2ccccc2)[C@@H](O)C[C@H](Cc2ccccc2)NC(=O)OCc2cccnc2)C(C)C)cn1 (stereo not given in full) | 6.7% | 290 ng·h/mL | 1220 nM | 6 min | 26.4 min
14 | CC(C)c1nc(CN(C)C(=O)NC(C(=O)N[C@@H](Cc2ccccc2)C[C@H](O)[C@H](Cc2ccccc2)NC(=O)OCc2cncs2)C(C)C)cs1 (stereo not given in full) | 78% | 7750 ng·h/mL | 2620 nM | 120 min | 72 min
15 | Cc1ncc(COC(=O)N[C@@H](Cc2ccccc2)C[C@H](O)[C@H](Cc2ccccc2)NC(=O)C(NC(=O)N(C)Cc2csc(C(C)C)n2)C(C)C)s1 (stereo not given in full) | 28% | 2370 ng·h/mL | 2080 nM | 42 min | 27.6 min
16 | CC(C)C(NC(=O)N(C)Cc1csc(C2CC2)n1)C(=O)N[C@@H](Cc1ccccc1)C[C@H](O)[C@H](Cc1ccccc1)NC(=O)OCc1cncs1 (stereo not given in full) | 58% | 21900 ng·h/mL | 6460 nM | 130 min | 66 min
17 | CC(C)C(NC(=O)OCc1cnccn1)C(=O)N[C@@H](Cc1ccccc1)[C@@H](O)C[C@H](Cc1ccccc1)NC(=O)OCc1cccnc1 (stereo not given in full) | 4.5% | 210 ng·h/mL | 1030 nM | 12 min | 13.8 min
18 | CC(C)c1ncc(COC(=O)NC(C(=O)N[C@@H](Cc2ccccc2)C[C@H](O)[C@H](Cc2ccccc2)NC(=O)OCc2cccnc2)C(C)C)s1 (stereo not given in full) | 0.7% | 20 ng·h/mL | 150 nM | 6 min | 27.6 min
19 | COc1cncc(COC(=O)NC(C(=O)N[C@@H](Cc2ccccc2)[C@@H](O)C[C@H](Cc2ccccc2)NC(=O)OCc2cccnc2)C(C)C)c1 (stereo not given in full) | 1.5% | 70 ng·h/mL | 300 nM | 6 min | 71.4 min
20 | CC(C)C(NC(=O)N(C)Cc1ccccn1)C(=O)N[C@@H](Cc1ccccc1)C[C@H](O)[C@H](Cc1ccccc1)NC(=O)OCc1cccnc1 (stereo not given in full) | 22% | 1220 ng·h/mL | 2180 nM | 9 min | 73.2 min
21 | CC(C)C(NC(=O)N(C)Cc1cscn1)C(=O)N[C@@H](Cc1ccccc1)C[C@H](O)[C@H](Cc1ccccc1)NC(=O)OCc1cccnc1 (stereo not given in full) | 5.2% | 290 ng·h/mL | 640 nM | 6 min | 40.2 min
22 | CC(C)C(NC(=O)N(C)Cc1csc(C(C)(C)C)n1)C(=O)N[C@@H](Cc1ccccc1)C[C@H](O)[C@H](Cc1ccccc1)NC(=O)OCc1cccnc1 (stereo not given in full) | 5.3% | 230 ng·h/mL | 380 nM | 19.8 min | 17.4 min
23 | CCc1ncc(COC(=O)NC(C(=O)N[C@@H](Cc2ccccc2)C[C@H](O)[C@H](Cc2ccccc2)NC(=O)OCc2cccnc2)C(C)C)s1 (stereo not given in full) | 0.5% | 10 ng·h/mL | 160 nM | 6 min | 11.4 min
24 | CC(C)C(NC(=O)OCc1cncc(N)c1)C(=O)N[C@@H](Cc1ccccc1)C[C@H](O)[C@H](Cc1ccccc1)NC(=O)OCc1cccnc1 (stereo not given in full) | 0.3% | 30 ng·h/mL | 140 nM | 6 min | 30 min
25 | CC(C)c1nc(CN(C)C(=O)NC(C(=O)N[C@@H](Cc2ccccc2)[C@@H](O)C[C@H](Cc2ccccc2)NC(=O)OCc2cncs2)C(C)C)cs1 (stereo not given in full) | 16% | 1700 ng·h/mL | 2290 nM | 105 min | 120 min
26 | CCc1nc(CN(C)C(=O)NC(C(=O)N[C@@H](Cc2ccccc2)C[C@H](O)[C@H](Cc2ccccc2)NC(=O)OCc2cccnc2)C(C)C)cs1 (stereo not given in full) | 17% | 1050 ng·h/mL | 1490 nM | 15 min | 72 min
27 | Cc1ncc(COC(=O)NC(C(=O)N[C@@H](Cc2ccccc2)[C@@H](O)C[C@H](Cc2ccccc2)NC(=O)OCc2cccnc2)C(C)C)nc1C (stereo not given in full) | 5.7% | 120 ng·h/mL | 350 nM | 12 min | 18 min
28 | COCc1nc(CN(C)C(=O)NC(C(=O)N[C@@H](Cc2ccccc2)[C@@H](O)C[C@H](Cc2ccccc2)NC(=O)OCc2cccnc2)C(C)C)cs1 (stereo not given in full) | 16% | 1240 ng·h/mL | 2290 nM | 30 min | 33.6 min
29 | Cc1ncc(CN(C)C(=O)NC(C(=O)N[C@@H](Cc2ccccc2)C[C@H](O)[C@H](Cc2ccccc2)NC(=O)OCc2cccnc2)C(C)C)nc1C (stereo not given in full) | 6.4% | 330 ng·h/mL | 1130 nM | 15 min | 18 min
30 | CC(NC(=O)N(Cc1csc(C(C)C)n1)C1CC1)C(=O)N[C@@H](Cc1ccccc1)C[C@H](O)[C@H](Cc1ccccc1)NC(=O)OCc1cncs1 (stereo not given in full) | 76% | 12000 ng·h/mL | 5190 nM | 108 min | 36.6 min
